Experiments:
[1] = tested on: ducksalad; assay: Test C flooded paddy test; type: in vivo, Heteranthera limosa; details: Flood
Summary of the method: (§1)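 Visual ratings from 0, no effect, to 100, complete control, were made against untreated controls after 13–15 greenhouse days. Compounds had gone straight into paddy water 3 cm above the soil, kept at that depth, on 2-leaf-stage plants.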

[2] = tested on: wheat; assay: Test A pre-/postemergence herbicide test; type: in vivo, Triticum aestivum
Summary of the method: (§2)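 Approximately 10 days after treatment in the greenhouse, plants were compared with untreated controls and given a 0–100 visual injury rating. Applications: preemergence directed soil spray; postemergence on 2–10 cm plants at the one- to two-leaf stage.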

[3] = tested on: barnyardgrass; assay: Test C flooded paddy test; type: in vivo, Echinochloa crus-galli; details: Flood
Summary of the method: as §1

[4] = tested on: crabgrass, large; assay: Test A pre-/postemergence herbicide test; type: in vivo, Digitaria sanguinalis
Summary of the method: as §2

[5] = tested on: morningglory; assay: Test A pre-/postemergence herbicide test; type: in vivo, Ipomoea spp.
Summary of the method: as §2

[6] = tested on: barnyardgrass; assay: Test A pre-/postemergence herbicide test; type: in vivo, Echinochloa crus-galli
Summary of the method: as §2

[7] = tested on: sedge, umbrella; assay: Test C flooded paddy test; type: in vivo, Cyperus difformis; details: Flood
Summary of the method: as §1

[8] = tested on: giant foxtail; assay: Test A pre-/postemergence herbicide test; type: in vivo, Setaria faberii; details: for Plant response rating, Foxtail, Giant: 0 to 100 scale
Summary of the method: as §2

[9] = tested on: pigweed; assay: Test A pre-/postemergence herbicide test; type: in vivo, Amaranthus retroflexus
Summary of the method: as §2

[10] = tested on: velvetleaf; assay: Test A pre-/postemergence herbicide test; type: in vivo, Abutilon theophrasti
Summary of the method: as §2

[11] = tested on: corn; assay: Test A pre-/postemergence herbicide test; type: in vivo, Zea mays
Summary of the method: as §2

[12] = tested on: rice; assay: Test C flooded paddy test; type: in vivo, Oryza sativa; details: Flood
Summary of the method: as §1

[13] = 125 g ai/ha, scale of 0 to 100 where 0 is no effect and 100 is complete control, 13 to 15 days
[14] = 250 g ai/ha, scale of 0 to 100 where 0 is no effect and 100 is complete control, 13 to 15 days
[15] = 125 g ai/ha, visual rating, 0 to 100 scale, 0 no effect, 100 complete control, approximately 10 days, preemergence
[16] = Postemergence, 125 g ai/ha, 0 to 100 scale, 0 is no effect, 100 is complete control
[17] = preemergence, 500 g ai/ha, 0 to 100 scale, 0 is no effect and 100 is complete control
[18] = 31 g ai/ha, scale of 0 to 100 where 0 is no effect and 100 is complete control, 13 to 15 days
[19] = 62 g ai/ha, scale of 0 to 100 where 0 is no effect and 100 is complete control, 13 to 15 days
[20] = Postemergence, 125 g ai/ha, 0 to 100 scale, 0 no effect, 100 complete control
[21] = Postemergence, 500 g ai/ha, 0 to 100 scale (0 no effect, 100 complete control)
[22] = Preemergence, 125 g ai/ha, visual rating on 0 to 100 scale (0 no effect, 100 complete control)
[23] = preemergence, 500 g ai/ha, 0 to 100 scale

O=C1NCC(c2cccc(C(F)(F)F)c2)C1C(=O)Nc1ccccc1Br (racemic) [Compound 190]
10: Plant response rating, Barnyardgrass [3, 13] | Morningglory plant response rating (0 to 100 scale, 0 is no effect, 100 is complete control) ([5]; Postemergence, 500 g ai/ha) | Velvetleaf plant response rating (0 to 100 scale, 0 is no effect, 100 is complete control) ([10]; Postemergence, 500 g ai/ha)
0: Plant response rating, Wheat [2, 15] | Plant response rating, Wheat [2, 16] | Wheat plant response rating (0 to 100 scale, 0 is no effect, 100 is complete control) ([2]; Postemergence, 500 g ai/ha) | Plant response rating, Morningglory [5, 15] | Plant response rating, Morningglory [5, 16] | Plant response rating, Morningglory [5, 17] | Plant response rating, Sedge, Umbrella [7, 13] | Plant response rating, Sedge, Umbrella [7, 14] | Plant response rating, Sedge, Umbrella ([7]; 500 g ai/ha, scale 0 to 100) | Plant response rating, Sedge, Umbrella ([7]; 1000 g ai/ha, scale 0 to 100) | Plant response rating, Pigweed [9, 15] | Plant response rating, Pigweed [9, 16] | Pigweed plant response rating (0 to 100 scale, 0 is no effect, 100 is complete control) ([9]; Postemergence, 500 g ai/ha) | Plant response rating, Pigweed [9, 17] | Plant response rating, Velvetleaf [10, 15] | Plant response rating, Velvetleaf [10, 16] | Plant response rating, Velvetleaf [10, 17] | Plant response rating, Corn [11, 15] | Plant response rating, Corn [11, 16] | Plant response rating, Corn [11, 17] | Plant response rating, Rice [12, 13] | Plant response rating, Rice [12, 14] | Plant response rating, Rice ([12]; 500 g ai/ha, scale 0 to 100)
65: Plant response rating, Barnyardgrass ([3]; 1000 g ai/ha, scale 0 to 100)
90: Plant response rating, Crabgrass, Large [4, 15] | Crabgrass, Large plant response rating (0 to 100 scale, 0 is no effect, 100 is complete control) ([4]; Postemergence, 500 g ai/ha) | Plant response rating, Crabgrass, Large [4, 17] | Barnyardgrass plant response rating (0 to 100 scale, 0 is no effect, 100 is complete control) ([6]; Postemergence, 500 g ai/ha) | Plant response rating, Barnyardgrass [6, 17] | Plant response rating, Foxtail, Giant ([8]; preemergence, 500 g ai/ha, 0 is no effect and 100 is complete control)
60: Plant response rating, Barnyardgrass [6, 15]
50: Plant response rating, Ducksalad [1, 13] | Plant response rating, Barnyardgrass ([3]; 500 g ai/ha, scale 0 to 100)
75: Plant response rating, Ducksalad [1, 14]
30: Plant response rating, Wheat [2, 17]
25: Plant response rating, Barnyardgrass [3, 14]
70: Plant response rating, Crabgrass, Large [4, 16] | Plant response rating, Barnyardgrass [6, 16] | Plant response rating, Foxtail, Giant ([8]; Postemergence, 125 g ai/ha, 0 is no effect, 100 is complete control)
15: Plant response rating, Rice ([12]; 1000 g ai/ha, scale 0 to 100)
80: Plant response rating, Foxtail, Giant ([8]; 125 g ai/ha, visual rating, 0 no effect, 100 complete control, approximately 10 days, preemergence) | Foxtail, Giant plant response rating (0 to 100 scale, 0 is no effect, 100 is complete control) ([8]; Postemergence, 500 g ai/ha)
85: Plant response rating, Ducksalad ([1]; 500 g ai/ha, scale 0 to 100)
40: Corn plant response rating (0 to 100 scale, 0 is no effect, 100 is complete control) ([11]; Postemergence, 500 g ai/ha)
100: Plant response rating, Ducksalad ([1]; 1000 g ai/ha, scale 0 to 100)

CC1(C)NC(=O)C(C(=O)Nc2ccccc2F)C1c1ccc(F)c(F)c1 (centres unmarked) [Compound 11]
0: Plant response rating, Ducksalad [1, 18] | Plant response rating, Ducksalad [1, 19] | Plant response rating, Ducksalad [1, 13] | Plant response rating, Ducksalad ([1]; 250 g ai/ha, scale 0 to 100) | Plant response rating, Wheat [2, 20] | Plant response rating, Wheat [2, 21] | Wheat plant response rating [2, 22] | Plant response rating, Wheat [2, 23] | Plant response rating, Barnyardgrass [3, 18] | Plant response rating, Barnyardgrass [3, 19] | Plant response rating, Barnyardgrass [3, 13] | Plant response rating, Barnyardgrass ([3]; 250 g ai/ha, scale 0 to 100) | Plant response rating, Crabgrass, Large [4, 20] | Plant response rating, Morningglory [5, 20] | Plant response rating, Morningglory [5, 21] | Morningglory plant response rating [5, 22] | Plant response rating, Morningglory [5, 23] | Plant response rating, Barnyardgrass [6, 20] | Barnyardgrass plant response rating [6, 22] | Plant response rating, Sedge, Umbrella [7, 18] | Plant response rating, Sedge, Umbrella [7, 19] | Plant response rating, Sedge, Umbrella [7, 13] | Plant response rating, Sedge, Umbrella ([7]; 250 g ai/ha, scale 0 to 100) | Plant response rating, Foxtail, Giant ([8]; Postemergence, 125 g ai/ha, 0 no effect, 100 complete control) | Plant response rating, Pigweed [9, 20] | Plant response rating, Pigweed [9, 21] | Pigweed plant response rating [9, 22] | Plant response rating, Pigweed [9, 23] | Plant response rating, Velvetleaf [10, 20] | Plant response rating, Velvetleaf [10, 21] | Velvetleaf plant response rating [10, 22] | Plant response rating, Velvetleaf [10, 23] | Plant response rating, Corn [11, 20] | Plant response rating, Corn [11, 21] | Corn plant response rating [11, 22] | Plant response rating, Corn [11, 23] | Plant response rating, Rice [12, 18] | Plant response rating, Rice [12, 19] | Plant response rating, Rice [12, 13] | Plant response rating, Rice ([12]; 250 g ai/ha, scale 0 to 100)
20: Plant response rating, Barnyardgrass ([6]; preemergence, 500 g ai/ha, 0 to 100 scale (0 no effect, 100 complete control)) | Foxtail, Giant plant response rating [8, 22]
50: Plant response rating, Crabgrass, Large [4, 21] | Plant response rating, Barnyardgrass [6, 21] | Plant response rating, Foxtail, Giant ([8]; preemergence, 500 g ai/ha)
90: Plant response rating, Crabgrass, Large [4, 23]
70: Crabgrass, Large plant response rating [4, 22]

From US10294202B2, “Pyrrolidinones as herbicides” (FMC Corporation, priority 2013, dated 2019)
